Source: patent publication US20250368628A1, “METHODS AND COMPOUNDS FOR MODULATING INHERITED GENETIC DISEASES” (Design Therapeutics, Inc., priority 2022, published 2025)

What was measured:
[1] = system: Myotonic Dystrophy 1 affected patient fibroblasts (Coriel GM04602; 1600 CTG repeats); experiment: DM1 foci reduction assay (EC50 assay; CAG10-Cy3 FISH, foci per nucleus); format: cell-based; conditions: Homo sapiens, Fibroblast; DM1 patient fibroblasts, 48 h treatment, foci per nucleus; read-out: DM1 EC50, 48 h
In short: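 Foci per nucleus counted by 20× imaging of 4 areas per well, after overnight FISH with 5 nM CAG10-Cy3 and DAPI staining of fixed, permeabilized cells. DM1 fibroblasts (GM04602, 1600 CTG) were dosed 48 h at 37 °C, 8 points, 3-fold dilutions, 3 μM top concentration.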

F35T cells = experiment: Foci reduction in FECD (CAG10-Cy3 FISH, foci per nucleus); format: cell-based; conditions: F35T cells, 48 h treatment, foci per nucleus; read-out: FECD EC50, 48 h
In short: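 Foci per nucleus were counted by imaging after overnight CAG10-Cy3 FISH at 37 °C (30% formamide, 2×SSC) with DAPI counterstain, on PFA-fixed, ethanol-permeabilized F35T cells. The cells, seeded at 5000 per well in supplemented Opti-MEM, had received 8-point compound dilutions for 48 h at 37 °C.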

Structure (SMILES) | EC50 [1] [µM] | EC50 (F35T cells) [µM]
CC(=O)NCCCCCCn1cc(NC(=O)c2nc(NC(=O)CCNC(=O)c3cc(NC(=O)c4nccn4C)cn3C)cn2C)cc1C(=O)NCCCC(=O)Nc1cn(C)c(C(=O)NCCC(=O)Nc2cc(C(=O)Nc3cn(C)c(C(=O)NCCC(=O)N4CCC(C#CC#CC5CCN(C(=O)OC(C)(C)C)CC5)CC4)n3)n(C)c2)n1 [Compound B-356] | > 1 | 0.5 to 1
CC(=O)N1CCC(CN2CCN(C(=O)CCNC(=O)c3nc(NC(=O)c4cc(NC(=O)CCNC(=O)c5nc(NC(=O)CCCNC(=O)c6cc(NC(=O)c7nc(NC(=O)CCNC(=O)c8cc(NC(=O)c9nccn9C)cn8C)cn7C)cn6C)cn5C)cn4C)cn3C)CC2)CC1 [Compound B-115] | 0.1 to 0.5 | 0.5 to 1
CCCCCCN1CCC(C#CC#CC2CCN(CCOCCOCCOCCNC(=O)CCNC(=O)c3nc(NC(=O)c4cc(NC(=O)CCNC(=O)c5nc(NC(=O)CCCNC(=O)c6cc(NC(=O)c7nc(NC(=O)CCNC(=O)c8cc(NC(=O)c9nccn9C)cn8C)cn7C)cn6C)cn5C)cn4C)cn3C)CC2)CC1 [Compound B-172] | < 0.1 | 0.1 to 0.5
Cn1cc(NC(=O)c2nc(NC(=O)CCNC(=O)c3cc(NC(=O)c4nccn4C)cn3C)cn2C)cc1C(=O)NCCCC(=O)Nc1cn(C)c(C(=O)NCCC(=O)Nc2cc(C(=O)Nc3cn(C)c(C(=O)NCCC(=O)NCCOCCOCCOCCN4CCC(C#CC#CC5CCN(C(=O)c6ccc(C(C)(C)C)cc6)CC5)CC4)n3)n(C)c2)n1 [Compound B-175] | 0.1 to 0.5 | 0.1 to 0.5
CCCNC(=O)CCNC(=O)c1nc(NC(=O)c2cc(NC(=O)CCNC(=O)c3nc(NC(=O)[C@@H](CCNC(=O)c4cc(NC(=O)c5nc(NC(=O)CCNC(=O)c6cc(NC(=O)c7nccn7C)cn6C)cn5C)cn4C)NC(C)=O)cn3C)cn2C)cn1C [Compound B-5] | < 0.1 | 0.1 to 0.5
Cn1cc(NC(=O)c2nc(NC(=O)CCNC(=O)c3cc(NC(=O)c4nccn4C)cn3C)cn2C)cc1C(=O)NCCCC(=O)Nc1cn(C)c(C(=O)NCCC(=O)Nc2cc(C(=O)Nc3cn(C)c(C(=O)NCCC(=O)N4CC(c5cnc(CN(CCCC(=O)O)CCCC(=O)O)[nH]5)C4)n3)n(C)c2)n1 [Compound B-371] | > 1 | > 1
CCCNC(=O)CCNC(=O)c1nc(NC(=O)c2cc(NC(=O)CCNC(=O)c3nc(NC(=O)CCCNC(=O)c4cc(NC(=O)c5nc(NC(=O)CCNC(=O)c6cc(NC(=O)c7nccn7C)cn6C)cn5C)cn4CCCOCCNC(C)=O)cn3C)cn2C)cn1C [Compound B-304] | < 0.1 | < 0.1
Cn1cc(NC(=O)c2nc(NC(=O)CCNC(=O)c3cc(NC(=O)c4nccn4C)cn3C)cn2C)cc1C(=O)NCCCC(=O)Nc1cn(C)c(C(=O)NCCC(=O)Nc2cc(C(=O)Nc3cn(C)c(C(=O)NCCC(=O)NCCOCCN4CCC(C#CC#CC5CCNCC5)CC4)n3)n(C)c2)n1 [Compound B-20] | 0.5 to 1 | 0.5 to 1
COCCOCCOCCOCCOCCOCCC(=O)NCCCCCCn1cc(NC(=O)c2nc(NC(=O)CCNC(=O)c3cc(NC(=O)c4nccn4C)cn3C)cn2C)cc1C(=O)NCCCC(=O)Nc1cn(C)c(C(=O)NCCC(=O)Nc2cc(C(=O)Nc3cn(C)c(C(=O)NCCC(=O)N4CCC(C#CC#CC5CCN(C(C)=O)CC5)CC4)n3)n(C)c2)n1 [Compound B-239] | 0.1 to 0.5 | 0.1 to 0.5
Cn1cc(NC(=O)c2nc(NC(=O)CCNC(=O)c3cc(NC(=O)c4nccn4C)cn3C)cn2C)cc1C(=O)NCCCC(=O)Nc1cn(C)c(C(=O)NCCC(=O)Nc2cc(C(=O)Nc3cn(C)c(C(=O)NCCC(=O)NCCOCCOc4ccc(N)cc4)n3)n(C)c2)n1 [Compound B-16] | 0.1 to 0.5 | 0.1 to 0.5
Cn1cc(NC(=O)c2nc(NC(=O)CCNC(=O)c3cc(NC(=O)c4nccn4C)cn3C)cn2C)cc1C(=O)NCCCC(=O)Nc1cn(C)c(C(=O)NCCC(=O)Nc2cc(C(=O)Nc3cn(C)c(C(=O)NCCC(=O)N4CCC(CN5CCNCC5)CC4)n3)n(C)c2)n1 [Compound B-127] | 0.1 to 0.5 | 0.1 to 0.5
CCCNC(=O)c1nc(NC(=O)c2cc(NC(=O)CCNC(=O)c3nc(NC(=O)CCCNC(=O)c4cc(NC(=O)c5nc(NC(=O)CCNC(=O)c6cc(NC(=O)c7nc(NC=O)cn7C)cn6C)cn5C)cn4C)cn3C)cn2C)cn1C [Compound B-327] | < 0.1 | < 0.1
CCCCCNC(=O)c1nc(NC(=O)c2cc(NC(=O)CCNC(=O)c3nc(NC(=O)CCCNC(=O)c4cc(NC(=O)c5nc(NC(=O)CCNC(=O)c6cc(NC(=O)c7nccn7C)cn6C)cn5C)cn4CCCCCCNC(=O)CCOCCOCCOCCOCCOCCOC)cn3C)cn2C)cn1C [Compound B-236] | 0.1 to 0.5 | 0.1 to 0.5
CCCNC(=O)CCNC(=O)c1nc(NC(=O)c2cc(NC(=O)CCNC(=O)c3nc(NC(=O)CCCNC(=O)c4cc(NC(=O)c5nc(NC(=O)CCNC(=O)c6cc(NC(=O)c7nccn7C)cn6C)cn5C)cn4C)cn3C)cn2C)cn1C [Compound B-1] | 0.1 to 0.5 | < 0.1
CN1CCN(C2CCN(C(=O)CCNC(=O)c3nc(NC(=O)c4cc(NC(=O)CCNC(=O)c5nc(NC(=O)CCCNC(=O)c6cc(NC(=O)c7nc(NC(=O)CCNC(=O)c8cc(NC(=O)c9nccn9C)cn8C)cn7C)cn6C)cn5C)cn4C)cn3C)CC2)CC1 [Compound B-131] | 0.1 to 0.5 | < 0.1
CCCNC(=O)CCNC(=O)c1nc(NC(=O)c2cc(NC(=O)CCNC(=O)c3nc(NC(=O)CCCNC(=O)c4cc(NC(=O)c5nc(NC(=O)CCNC(=O)c6cc(NC(=O)c7nccn7C)cn6C)cn5C)cn4CCN=[N+]=[N-])cn3C)cn2C)cn1C [Compound B-264] | < 0.1 | < 0.1
CC(Nc1cc(C(=O)NCCC(=O)Nc2cn(C)c(C(=O)Nc3cc(C(=O)NCCCC(=O)Nc4cn(C)c(C(=O)Nc5cc(C(=O)NCCC(=O)Nc6cn(C)c(C(=O)NCCC(=O)NCCOCCOCCOCCOCCOCCNC(=O)[C@@H](N)CO)n6)n(C)c5)n4)n(C)c3)n2)n(C)c1)c1nccn1C (some centres unmarked) [Compound B-111] | 0.5 to 1 | > 1
CC#CC#CC1CCN(C(=O)CCNC(=O)c2nc(NC(=O)c3cc(NC(=O)CCNC(=O)c4nc(NC(=O)CCCNC(=O)c5cc(NC(=O)c6nc(NC(=O)CCNC(=O)c7cc(NC(=O)c8nccn8C)cn7C)cn6C)cn5C)cn4C)cn3C)cn2C)CC1 [Compound B-381] | 0.1 to 0.5 | 0.1 to 0.5
Cn1cc(NC(=O)c2nc(NC(=O)CCNC(=O)c3cc(NC(=O)c4nccn4C)cn3C)cn2C)cc1C(=O)NCCCC(=O)Nc1cn(C)c(C(=O)NCCC(=O)Nc2cc(C(=O)Nc3cn(C)c(C(=O)NCCC(=O)N4CCC(C#CC5=CCNCC5)CC4)n3)n(C)c2)n1 [Compound B-346] | 0.1 to 0.5 | < 0.1
Cn1cc(NC(=O)c2nc(NC(=O)CCNC(=O)c3cc(NC(=O)c4nc(NC(=O)[C@H](N)CCNC(=O)c5cc(NC(=O)c6nc(NC(=O)CCNC(=O)c7cc(NC(=O)c8nccn8C)cn7C)cn6C)cn5C)cn4C)cn3C)cn2C)cc1C(=O)NCCO [Compound B-8] | 0.5 to 1 | > 1
Cn1cc(NC(=O)c2nc(NC(=O)CCNC(=O)c3cc(NC(=O)c4nccn4C)cn3C)cn2C)cc1C(=O)NCCCC(=O)Nc1cn(C)c(C(=O)NCCC(=O)Nc2cc(C(=O)Nc3cn(C)c(C(=O)NCCCOCOP(=O)(O)O)n3)n(C)c2)n1 [Compound B-332] | 0.1 to 0.5 | < 0.1
COC(=O)c1cccc(C#CCNCCCNC(=O)c2nc(NC(=O)c3cc(NC(=O)CCNC(=O)c4nc(NC(=O)CCCNC(=O)c5cc(NC(=O)c6nc(NC(=O)CCNC(=O)c7cc(NC(=O)c8nccn8C)cn7C)cn6C)cn5C)cn4C)cn3C)cn2C)c1 [Compound B-361] | < 0.1 | < 0.1
